# Experimental data as given in PMC12714728, “VHH antibody loop guides design of a synthetic macrocyclic peptide that potently blocks influenza virus membrane fusion” (npj Viruses, 2025).
# Values joined by “and” are separate entries in the source; they are usually repeats but may differ in a detail not shown here. Equal values may be shown once. Read-outs that look alike come from different tables or passages of the source.
# Assays:
# [1] = target: T1, H1/PR8 HA (A/Puerto Rico/8/1934 (H1N1)) (Influenza A virus, UniProt P03452); assay: Trypsin susceptibility (TS) assay; type: biochemical; conditions: pH 5.0; 50 μM CP1 or 10 μM CR9114 Fab, 5 μM HA
# T1 construct: The HA ectodomain was expressed using a baculovirus expression system in Sf9 cells; gp67 signal peptide (N); thrombin site (C); BirA biotinylation site (C); trimerization domain (C); His-tag (C); made in house; host or cells: Sf9 cells (baculovirus)
# [2] = system: group 2 or influenza B HAs; type: binding, influenza A and B viruses
# [3] = system: H1N1 A/Brisbane/59/2007 (H1/Bri) HA; type: biochemical, influenza A virus; conditions: pH 5.25
# [4] = system: H5/Viet virus (A/Vietnam/1203/2004 (H5N1))
# [5] = target: H3N2 A/Victoria/361/2011 HA; type: binding, influenza A virus
# [6] = target: H12N5 A/duck/Alberta/60/1976 HA; type: binding, influenza A virus
# [7] = system: group 1 H1/Cal, H1/NCa, and H5/Viet HAs; type: binding, influenza A virus
# [8] = target: H15N9 A/shearwater/W. Australia/2576/79 HA; type: binding, influenza A virus
# [9] = target: H1/NCa HA (H1N1 A/New Caledonia/20/1999); type: binding, influenza A virus
# [10] = system: group 1 H1/Cal, H1/NCa, and H5/Viet HAs; type: binding, influenza A virus; remark: listed apart in the source
# [11] = system: H1/Cal HA (H1N1 A/California/07/2009); type: binding, influenza A virus
# [12] = target: H14N5 A/mallard/Astrakhan/263/1982 HA (Influenza A virus, UniProt P26136); type: binding
# [13] = target: H7N7 A/Netherlands/219/2003 HA; type: binding, influenza A virus
# [14] = target: H1N1 A/duck/Alberta/345/1976 HA; type: binding, influenza A virus
# [15] = target: H16N3 A/black-headed gull/Sweden/4/1999 HA; type: binding, influenza A virus
# [16] = target: H1N1 A/Solomon Islands/3/2006 HA; type: binding, influenza A virus
# [17] = In vitro cell permeability assay; conditions: for efflux ratio: LLC-PK1, Efflux ratio BA/AB; for efflux ratio / Papp B→A: LLC-Parent; for Papp B→A: LLC-PK1, Papp BA, basolateral to apical
# [18] = target: B/Brisbane/33/2008 HA (Victoria lineage); type: binding, influenza B virus
# [19] = target: H6N2 A/turkey/Massachusetts/3740/1965 HA; type: binding, influenza A virus
# [20] = target: H4N6 A/duck/Czechoslovakia/1956 HA (Influenza A virus, UniProt P19696); type: binding
# [21] = target: B/Massachusetts/02/2012 HA (Yamagata lineage); type: binding, influenza B virus
# [22] = target: H9N2 A/turkey/Wisconsin/1/1966 HA; type: binding, influenza A virus
# [23] = system: H1/NCa HA (A/New Caledonia/20/1999 (H1N1)); type: binding, influenza A virus
# H2N2 A/Adachi/2/1957 HA = type: binding, influenza A virus
# [24] = system: H5/Viet HA (H5N1 A/Vietnam/1203/2004); type: binding, influenza A virus
# [25] = system: H5/Viet HA (A/Vietnam/1203/2004 (H5N1)); type: binding, influenza A virus
# [26] = target: H10N7 A/chicken/Germany/N/1949 HA (Influenza A virus, UniProt P12581); type: binding
# [27] = target: H3N2 A/Hong Kong/1/1968 HA (Influenza A virus, UniProt Q91MA7); type: binding
# [28] = In vitro cell permeability / P-gp substrate assay; conditions: for Papp A→B: LLC-PK1, Papp AB, LLC-MDR1, apical to basolateral; for Papp B→A: LLC-PK1, Papp BA, LLC-MDR1, basolateral to apical
# [29] = system: H1/Cal HA (A/California/07/2009 (H1N1)); type: binding, influenza A virus
# [30] = target: H11N6 A/duck/England/1/1956 HA; type: binding, influenza A virus
# Chain of H10N7 A/chicken/Germany/N/1949 HA (P12581 17-524 limits assumed): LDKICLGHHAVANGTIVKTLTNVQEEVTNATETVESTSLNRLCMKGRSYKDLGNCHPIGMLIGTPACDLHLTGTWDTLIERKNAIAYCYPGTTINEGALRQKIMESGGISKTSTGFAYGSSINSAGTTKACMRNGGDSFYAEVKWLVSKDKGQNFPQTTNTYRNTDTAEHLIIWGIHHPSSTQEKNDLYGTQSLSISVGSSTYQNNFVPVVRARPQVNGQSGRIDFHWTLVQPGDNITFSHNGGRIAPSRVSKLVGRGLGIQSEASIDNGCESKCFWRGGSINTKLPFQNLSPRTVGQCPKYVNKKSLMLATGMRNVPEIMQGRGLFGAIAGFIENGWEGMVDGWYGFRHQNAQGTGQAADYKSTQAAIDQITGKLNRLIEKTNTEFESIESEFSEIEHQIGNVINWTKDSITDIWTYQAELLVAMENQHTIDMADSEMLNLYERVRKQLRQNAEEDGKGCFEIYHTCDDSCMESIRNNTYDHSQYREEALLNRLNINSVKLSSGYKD
# Chain of H4N6 A/duck/Czechoslovakia/1956 HA (P19696 17-527 limits assumed): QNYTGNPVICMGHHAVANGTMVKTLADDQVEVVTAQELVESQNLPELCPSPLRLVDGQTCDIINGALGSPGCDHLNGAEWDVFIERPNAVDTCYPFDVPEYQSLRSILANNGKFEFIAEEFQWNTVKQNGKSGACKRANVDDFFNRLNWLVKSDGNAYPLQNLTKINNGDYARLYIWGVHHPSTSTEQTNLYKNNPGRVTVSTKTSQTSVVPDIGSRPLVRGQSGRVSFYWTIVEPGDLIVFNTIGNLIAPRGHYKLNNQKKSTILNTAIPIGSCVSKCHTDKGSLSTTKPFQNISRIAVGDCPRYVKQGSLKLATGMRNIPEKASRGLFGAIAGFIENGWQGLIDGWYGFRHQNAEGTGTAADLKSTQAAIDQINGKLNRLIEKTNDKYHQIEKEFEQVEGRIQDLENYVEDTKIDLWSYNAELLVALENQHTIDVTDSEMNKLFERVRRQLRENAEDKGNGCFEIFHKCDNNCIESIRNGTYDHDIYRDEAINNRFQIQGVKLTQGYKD
# Chain of H3N2 A/Hong Kong/1/1968 HA (Q91MA7 17-530 limits assumed): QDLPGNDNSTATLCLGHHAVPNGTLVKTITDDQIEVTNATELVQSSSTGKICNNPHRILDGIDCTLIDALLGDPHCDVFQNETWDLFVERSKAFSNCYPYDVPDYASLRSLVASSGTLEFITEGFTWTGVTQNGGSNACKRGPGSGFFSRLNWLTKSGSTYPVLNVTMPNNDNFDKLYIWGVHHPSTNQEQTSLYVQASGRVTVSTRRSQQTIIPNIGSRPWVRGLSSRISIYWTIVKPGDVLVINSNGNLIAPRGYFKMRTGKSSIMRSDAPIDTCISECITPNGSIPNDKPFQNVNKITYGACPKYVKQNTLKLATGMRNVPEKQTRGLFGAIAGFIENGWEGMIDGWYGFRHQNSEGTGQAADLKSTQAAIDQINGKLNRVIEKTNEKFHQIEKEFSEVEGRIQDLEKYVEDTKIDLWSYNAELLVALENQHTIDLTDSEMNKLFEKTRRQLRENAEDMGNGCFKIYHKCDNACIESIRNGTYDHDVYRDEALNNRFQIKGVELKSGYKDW
# Chain of H14N5 A/mallard/Astrakhan/263/1982 HA (P26136 18-531 limits assumed): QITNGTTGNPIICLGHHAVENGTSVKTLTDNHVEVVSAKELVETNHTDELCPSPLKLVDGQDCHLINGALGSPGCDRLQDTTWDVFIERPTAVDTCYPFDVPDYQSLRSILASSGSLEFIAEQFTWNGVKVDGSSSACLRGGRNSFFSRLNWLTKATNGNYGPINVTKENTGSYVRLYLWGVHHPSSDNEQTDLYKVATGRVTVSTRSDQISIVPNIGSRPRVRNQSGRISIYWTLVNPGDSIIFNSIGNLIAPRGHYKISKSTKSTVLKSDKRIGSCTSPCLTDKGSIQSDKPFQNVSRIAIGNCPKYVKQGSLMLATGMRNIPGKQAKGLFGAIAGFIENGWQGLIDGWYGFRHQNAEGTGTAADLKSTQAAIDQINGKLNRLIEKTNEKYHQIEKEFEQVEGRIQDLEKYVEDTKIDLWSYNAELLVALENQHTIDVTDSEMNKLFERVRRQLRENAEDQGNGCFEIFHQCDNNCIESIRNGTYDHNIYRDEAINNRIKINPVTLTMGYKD
# T1 sequence (P03452 18-528 limits assumed): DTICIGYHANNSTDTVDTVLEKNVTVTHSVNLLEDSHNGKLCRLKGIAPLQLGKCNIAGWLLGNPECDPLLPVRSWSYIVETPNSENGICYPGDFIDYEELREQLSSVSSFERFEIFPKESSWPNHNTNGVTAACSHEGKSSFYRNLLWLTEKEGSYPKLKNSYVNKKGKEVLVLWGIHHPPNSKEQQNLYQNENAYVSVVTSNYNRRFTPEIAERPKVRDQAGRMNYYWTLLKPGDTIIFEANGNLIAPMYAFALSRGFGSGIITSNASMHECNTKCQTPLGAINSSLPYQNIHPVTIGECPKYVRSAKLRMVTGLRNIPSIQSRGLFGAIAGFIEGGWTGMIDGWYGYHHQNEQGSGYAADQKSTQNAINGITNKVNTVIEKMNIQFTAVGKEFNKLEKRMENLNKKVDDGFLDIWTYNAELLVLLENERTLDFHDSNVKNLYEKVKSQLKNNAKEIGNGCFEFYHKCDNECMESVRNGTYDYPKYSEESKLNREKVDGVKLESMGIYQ
smiles,measurement,setting,value
CSCC[C@@H]1NC(=O)CNC(=O)CNC(=O)[C@H](C)NC(=O)[C@H](C(C)C)NC(=O)CNC(=O)[C@H](CC(C)C)NC(=O)[C@@H]2CCCN2C(=O)[C@H](CC(=O)O)NC(=O)[C@H](CCC(=O)O)NC(=O)[C@H](Cc2ccc(O)cc2)NC(=O)[C@H](CC(C)C)NC(=O)[C@H](CO)NC(=O)[C@H](C(C)C)NC(=O)[C@H]2CCCN2C(=O)[C@@H]2CCCN2C(=O)[C@H](Cc2ccc(O)cc2)NC(=O)[C@H](C(C)C)NC(=O)CNC1=O [CP1],Protection of HA from low pH-induced conversion to trypsin-susceptible conformation,[1],inhibits the conversion of H1/PR8 HA to the post-fusion conformation
same,Binding against group 2 or influenza B HAs in SPR,[2],no binding
same,IC50,[3],49 nM and 50 nM
same,Neutralization activity against H5N1 virus (in words),[4],modest activity
same,KD,[5],N.B.
same,KD,[6],N.B.
same,half-life / residence time t1/2 (range over HAs),[7],5 to 46 s
same,slower dissociation (koff) compared to LP1,[7],9- to 180 fold
same,KD,[8],N.B.
same,Kd,[9],23 nM
same,improvement in binding in AlphaLISA versus LP1,[10],60- to 440 fold
same,IC50,[10]; read-out: IC50 in AlphaLISA (range over HAs),52 to 840 nM
same,improvement in binding affinity versus linear peptide LP1,[11],60 fold
same,Kd,[11]; read-out: KD,54 nM
same,Kd,[11]; read-out: KD by SPR,50 nM
same,KD,[12],N.B.
same,KD,[13],N.B.
same,Kd,[14],101 nM
same,Kd,[15],1100 nM
same,Kd,[16],128 nM
same,recovery,[17]; LLC-PK1,92.9%
same,efflux ratio,[17]; + 5 µM GF120918,2.97
same,efflux ratio,[17]; no inhibitor,2.55
same,Papp B→A,[17]; + 5 µM GF120918,0.22 ± 0.12 ×10⁻⁶ cm/s
same,Papp B→A,[17]; no inhibitor,0.19 ± 0.09 ×10⁻⁶ cm/s
same,Papp A→B,"[17]; LLC-PK1, pH 7.4",0.07 ± 0.01 ×10⁻⁶ cm/s
same,KD,[18],N.B.
same,Kd,[19],91 nM
same,KD,[20],N.B.
same,KD,[21],N.B.
same,Kd,[22],> 1000 nM
same,IC50,[23],52 ± 20 nM
same,Kd,H2N2 A/Adachi/2/1957 HA,> 1000 nM
same,faster koff rate against H5 versus H1 HA,[24],14 fold
same,IC50,[25],840 ± 130 nM
same,KD,[26],N.B.
same,KD,[27],N.B.
same,efflux ratio,"[28]; LLC-PK1, Efflux ratio BA/AB, LLC-MDR1, + 5 µM GF120918",1.36
same,efflux ratio,"[28]; LLC-PK1, Efflux ratio BA/AB, LLC-MDR1, no inhibitor",1.57
same,efflux ratio,"[28]; LLC-PK1, Efflux ratio, text: LLC-parent and LLC-MDR1, in the presence and absence of elacridar (GF120918)",< 2
same,Papp A→B,[28]; + 5 µM GF120918,0.23 ± 0.04 ×10⁻⁶ cm/s
same,Papp A→B,[28]; no inhibitor,0.21 ± 0.03 ×10⁻⁶ cm/s
same,Papp B→A,[28]; + 5 µM GF120918,0.32 ± 0.02 ×10⁻⁶ cm/s
same,Papp B→A,[28]; no inhibitor,0.33 ± 0.08 ×10⁻⁶ cm/s
same,IC50,[29],55 nM
same,Kd,[30],2300 nM
